These molecules were tested against T1, hTLR9 (Homo sapiens, UniProt Q9NR96) (assay: HEK293-Blue-hTLR-9 cells assay (SEAP reporter, ODN2006 stimulation)). Conditions: HEK293-Blue-hTLR9 cells, ODN2006, 20 hrs; 0.032 is the lowest tested concentration; read-out: HEK/hTLR9 IC50.
T1 sequence (Q9NR96 26-1032): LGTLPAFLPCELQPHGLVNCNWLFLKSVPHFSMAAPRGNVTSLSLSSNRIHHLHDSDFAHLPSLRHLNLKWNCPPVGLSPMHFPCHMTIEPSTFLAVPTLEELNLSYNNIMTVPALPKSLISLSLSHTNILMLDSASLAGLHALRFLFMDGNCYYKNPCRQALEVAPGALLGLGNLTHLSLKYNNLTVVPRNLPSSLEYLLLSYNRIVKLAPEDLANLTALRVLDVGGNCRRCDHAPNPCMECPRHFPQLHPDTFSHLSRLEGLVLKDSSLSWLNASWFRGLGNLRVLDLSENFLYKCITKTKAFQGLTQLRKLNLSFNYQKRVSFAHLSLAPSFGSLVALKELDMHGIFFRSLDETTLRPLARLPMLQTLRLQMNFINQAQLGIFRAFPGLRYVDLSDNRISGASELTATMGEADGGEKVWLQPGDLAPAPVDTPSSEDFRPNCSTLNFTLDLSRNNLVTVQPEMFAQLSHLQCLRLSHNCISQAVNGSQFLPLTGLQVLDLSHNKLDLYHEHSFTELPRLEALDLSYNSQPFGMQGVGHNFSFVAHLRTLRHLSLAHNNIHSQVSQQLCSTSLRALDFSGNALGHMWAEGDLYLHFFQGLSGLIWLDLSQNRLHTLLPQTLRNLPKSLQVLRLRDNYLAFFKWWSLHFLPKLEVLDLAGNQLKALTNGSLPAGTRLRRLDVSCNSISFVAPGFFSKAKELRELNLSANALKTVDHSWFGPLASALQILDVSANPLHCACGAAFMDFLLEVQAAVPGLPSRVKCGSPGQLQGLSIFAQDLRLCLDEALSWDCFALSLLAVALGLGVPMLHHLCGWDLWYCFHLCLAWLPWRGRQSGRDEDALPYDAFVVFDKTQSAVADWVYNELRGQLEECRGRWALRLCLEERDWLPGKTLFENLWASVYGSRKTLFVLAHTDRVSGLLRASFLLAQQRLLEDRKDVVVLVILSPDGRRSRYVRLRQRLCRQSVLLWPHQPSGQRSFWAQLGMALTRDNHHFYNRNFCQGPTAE
Assay type: cell-based
Experimental: The following tests were carried out in order to determine the activity of the compounds of formula (I) or (Ia) in HEK293-Blue-hTLR-7/8/9 cells assay.
HEK293-Blue-hTLR-9 cells assay:
A stable HEK293-Blue-hTLR-9 cell line was purchased from InvivoGen (Cat.#: hkb-htlr9, San Diego, California, USA). These cells were originally designed for studying the stimulation of human TLR9 by monitoring the activation of NF-κB. A SEAP (secreted embryonic alkaline phosphatase) reporter gene was placed under the control of the IFN-β minimal promoter fused to five NF-κB and AP-1-binding sites. The SEAP was induced by activating NF-κB and AP-1 via stimulating HEK-Blue hTLR9 cells with TLR9 ligands. Therefore the reporter expression was declined by TLR9 antagonist under the stimulation of a ligand, such as ODN2006 (Cat.#: tlrl-2006-1, Invivogen, San Diego, California, USA), for incubation of 20 hrs. The cell culture supernatant SEAP reporter activity was determined using QUANTI-Blue™ kit (Cat.#: rep-qb1, Invivogen, San Diego, California, USA) at a wavelength of 640 nm, a detection medium that turns purple or blue in the presence of alkaline phosphatase.
HEK293-Blue-hTLR9 cells were incubated at a density of 250,000∼450,000 cells/mL in a volume of 170 µL in a 96-well plate in Dulbecco's Modified Eagle's medium (DMEM) containing 4.5 g/L glucose, 50 U/mL penicillin, […], […], 2 mM L-glutamine, 10% (v/v) heat-inactivated fetal bovine serum with addition of 20 µL test compound in a serial dilution in the presence of final DMSO at 1% and 10 µL of 20uM ODN2006 in above DMEM, perform incubation under 37 °C in a CO2 incubator for 20 hrs. Then 20 µL of the supernatant from each well was incubated with 180 µL Quanti-blue substrate solution at 37 °C for 2 hrs and the absorbance was read at 620∼655 nm using a spectrophotometer. The signalling pathway that TLR9 activation leads to downstream NF-κB activation has been widely accepted, and therefore similar reporter assay was modified for evaluating TLR9 antagonist.

| IC50 [nM] | Molecule |
| --- | --- |
| 75 | C[C@@H]1CN(c2ccc(C#N)c3ncsc23)C[C@H](CN2Cc3ccc(N4CCNCC4)cc3C2)O1 [Example 23, 7-[(2R,6S)-2-methyl-6-[(5-piperazin-1-ylisoindolin-2-yl)methyl]morpholin-4-yl]-1,3-benzothiazole-4-carbonitrile] |
| 123 | C[C@@H]1CN(c2ccc(Cl)c3ncccc23)C[C@H](CN2CCc3cc(N4CCNCC4)ccc3C2)O1 [Example 32, (2R,6S)-4-(8-chloro-5-quinolyl)-2-methyl-6-[(6-piperazin-1-yl-3,4-dihydro-1H-isoquinolin-2-yl)methyl]morpholine] |
| < 32 | C[C@@H]1CN(c2ccc(C#N)c3ncccc23)C[C@H](CN2CCc3cc(N4CCNCC4)ncc3C2)O1 [Example 70, 5-[(2R,6S)-2-methyl-6-[(6-piperazin-1-yl-3,4-dihydro-1H-2,7-naphthyridin-2-yl)methyl]morpholin-4-yl]quinoline-8-carbonitrile] |
| 190 | C[C@@H]1CN(c2ccc(C#N)c3ncccc23)C[C@H](CN2Cc3ccc(N4CCNCC4C(F)F)cc3C2)O1 (stereo partly drawn) [Example 76, 5-[(2S,6R)-2-[[5-[2-(difluoromethyl)piperazin-1-yl]isoindolin-2-yl]methyl]-6-methyl-morpholin-4-yl]quinoline-8-carbonitrile] |
| 105 | CC1c2ccc(N3CCNCC3)cc2CN1C[C@H]1CN(c2ccc(C#N)c3ncccc23)C[C@@H](C)O1 (stereo partly drawn) [Example 48, 5-[(2R,6S)-2-methyl-6-[(1-methyl-5-piperazin-1-yl-isoindolin-2-yl)methyl]morpholin-4-yl]quinoline-8-carbonitrile] |
| 216 | C[C@@H]1CN(c2ccc(C#N)c3nccnc23)C[C@H](CN2Cc3ccc(N4CCN(C5CC5)CC4)cc3C2)O1 [Example 35, 8-[(2S,6R)-2-[[5-(4-cyclopropylpiperazin-1-yl)isoindolin-2-yl]methyl]-6-methyl-morpholin-4-yl]quinoxaline-5-carbonitrile] |
| 48 | C[C@@H]1CN(c2ccc(C#N)n3nccc23)C[C@H](CN2Cc3cc(N4CCNCC4)cnc3C2)O1 [Example 18, 4-[(2R,6S)-2-methyl-6-[(3-piperazin-1-yl-5,7-dihydropyrrolo[3,4-b]pyridin-6-yl)methyl]morpholin-4-yl]pyrazolo[1,5-a]pyridine-7-carbonitrile] |
| 67 | C[C@@H]1CN(c2ccc(C#N)n3nccc23)C[C@H](CN2CCc3cc(N4CCNCC4)ccc3C2)O1 [Example 10, 4-[(2R,6S)-2-methyl-6-[(6-piperazin-1-yl-3,4-dihydro-1H-isoquinolin-2-yl)methyl]morpholin-4-yl]pyrazolo[1,5-a]pyridine-7-carbonitrile] |
| 125 | C[C@@H]1CN(c2ccc(Cl)c3nccnc23)C[C@H](CN2CCc3cc(N4CCNCC4)ccc3C2)O1 [Example 34, (2R,6S)-4-(8-chloroquinoxalin-5-yl)-2-methyl-6-[(6-piperazin-1-yl-3,4-dihydro-1H-isoquinolin-2-yl)methyl]morpholine] |
| < 32 | C[C@@H]1CN(c2ccc(C#N)c3ncccc23)C[C@H](CN2CCc3nc(N4CCNCC4)ccc3C2)O1 [Example 79, 5-[(2R,6S)-2-methyl-6-[(2-piperazin-1-yl-7,8-dihydro-5H-1,6-naphthyridin-6-yl)methyl]morpholin-4-yl]quinoline-8-carbonitrile] |
| 221 | COC(=O)C1CN(c2ccc3c(c2)CN(C[C@H]2CN(c4ccc(C#N)c5ncccc45)C[C@@H](C)O2)C3)CCN1 (stereo partly drawn) [Example 67, Methyl 4-[2-[[(2S,6R)-4-(8-cyano-5-quinolyl)-6-methyl-morpholin-2-yl]methyl]isoindolin-5-yl] piperazine-2-carboxylate] |
| 73 | C[C@@H]1CN(c2ccc3c(c2)CN(C[C@H]2CN(c4ccc(C#N)c5ncccc45)C[C@@H](C)O2)C3)C[C@H](C)N1 [Example 71, 5-[(2R,6S)-2-methyl-6-[[5-[(3R,5S)-3,5-dimethylpiperazin-1-yl]isoindolin-2-yl]methyl]morpholin-4-yl]quinoline-8-carbonitrile] |
| 83 | C[C@@H]1CN(c2ccc(C#N)c3ncccc23)C[C@H](CN2Cc3ccc(N4CC5(CNC5)C4)cc3C2)O1 [Example 47, 5-[(2S,6R)-2-[[5-(2,6-diazaspiro[3.3]heptan-2-yl)isoindolin-2-yl]methyl]-6-methyl-morpholin-4-yl]quinoline-8-carbonitrile] |
| 48 | C[C@@H]1CN(c2ccc(C#N)n3nccc23)C[C@H](CN2Cc3ccc(N4CCN(C)CC4)cc3C2)O1 [Example 17, 4-[(2R,6S)-2-methyl-6-[[5-(4-methylpiperazin-1-yl)isoindolin-2-yl]methyl]morpholin-4-yl]pyrazolo[1,5-a]pyridine-7-carbonitrile] |
| 98 | C[C@@H]1CN(c2ccc3c(c2)CN(C[C@H]2CN(c4ccc(C#N)c5ncccc45)C[C@@H](C)O2)C3)C[C@@H](C)N1 (mixture of isomers) [Example 57, Trans-5-[(2R,6S)-2-methyl-6-[[5-[3,5-dimethylpiperazin-1-yl]isoindolin-2-yl]methyl]morpholin-4-yl]quinoline-8-carbonitrile] |
| 55 | C[C@@H]1CN(c2ccc(C#N)c3ncccc23)C[C@H](CN2Cc3ccc(N4CCNCC4)cc3C(O)C2)O1 (stereo partly drawn) [Example 75, 5-[(2S,6R)-2-[(4-hydroxy-6-piperazin-1-yl-3,4-dihydro-1H-isoquinolin-2-yl)methyl]-6-methyl-morpholin-4-yl]quinoline-8-carbonitrile] |
| 62 | C[C@@H]1CN(c2ccc(C#N)n3nccc23)C[C@H](CN2Cc3ccc(C4CCNCC4)cc3C2)O1 [Example 8, 4-[(2R,6S)-2-methyl-6-[[5-(4-piperidyl)isoindolin-2-yl]methyl]morpholin-4-yl]pyrazolo[1,5-a]pyridine-7-carbonitrile] |
| 55 | C[C@@H]1CN(c2ccc(C#N)n3nccc23)C[C@H](CN2Cc3ccc(N4CCNCC4)cc3C2)O1 [Example 4, 4-[(2R,6S)-2-methyl-6-[(5-piperazin-1-ylisoindolin-2-yl)methyl]morpholin-4-yl]pyrazolo[1,5-a]pyridine-7-carbonitrile] |
| 81 | C[C@@H]1CN(c2ccc(C#N)c3ncsc23)C[C@H](CN2CCc3cc(N4CCNCC4)ccc3C2)O1 [Example 24, 7-[(2R,6S)-2-methyl-6-[(6-piperazin-1-yl-3,4-dihydro-1H-isoquinolin-2-yl)methyl]morpholin-4-yl]-1,3-benzothiazole-4-carbonitrile] |

| Molecule | IC50 [nM] |
| --- | --- |
| C[C@@H]1CN(c2ccc(C#N)c3ncccc23)C[C@H](CN2Cc3ccc(N4CC5COCC(C4)N5)cc3C2)O1 [Example 72, 5-[(2R,6S)-2-methyl-6-[[5-(3-oxa-7,9-diazabicyclo[3.3.1]nonan-7-yl)isoindolin-2-yl]methyl]morpholin-4-yl]quinoline-8-carbonitrile] | 66 |
| 3-fluoro-4-[(2R,6S)-2-methyl-6-[(5-piperazin-1-ylisoindolin-2-yl)methyl]morpholin-4-yl]pyrazolo[1,5-a]pyridine-7-carbonitrile [Example 7] | 91 |

From patent EP3623369A1, “NOVEL MORPHOLINYL AMINE COMPOUNDS FOR THE TREATMENT OF AUTOIMMUNE DISEASE” (F. Hoffmann-La Roche AG, priority 2018, dated 2020)
